GI50 and TGI data for 19 compounds are collected here from PubChem BioAssay (NCI).

Structures are written as SMILES.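 Five concentrations, 48 hours, 96-well plates. The concentration for 50% growth inhibition is given as GI50. TGI marks complete inhibition of growth.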

The first assay concerns UACC-62 melanoma. As to the kind of experiment: inhibition of tumour cell growth, NCI panel, 48 h.
Turning to `OCC#Cc1ccccc1C#Cc1ccccc1`, the GI50 is 14.8 µM and the TGI amounted to 27.9 µM.

Turning to `COc1ccc(-c2nnc(COc3ccc(C(=O)/C=C/c4ccco4)cc3)o2)cc1`, the GI50 is 3.14 µM and the TGI amounted to 11.2 µM.

In turn, `Cc1ccccc1S(=O)(=O)OC1NS(=O)(=O)c2ccccc21` (stereo not given) came in with a TGI of over 100 µM.

As for `O=C(/C=C/c1ccncc1)c1cc(Cl)ccc1O`, the GI50 was 15.9 µM and the TGI worked out at 37.3 µM.

Take `COc1cc2c3c(n(C)c(=O)c2cc1OC)-c1cc2c(cc1/C3=C\CCCN)OCO2`: the GI50 was 2.13 µM and the TGI is 13.7 µM.

Consider `Cc1ccc(S(=O)(=O)Nc2ccccc2C(=O)c2ccc(C)c(C)c2)cc1`, for which the TGI is over 100 µM.

As to `COc1ccc(-c2nnc(COc3ccc(NC(=O)Nc4cc(C(F)(F)F)cc(C(F)(F)F)c4)cc3F)o2)cc1`, the GI50 was 2.11 µM and the TGI came to 7.13 µM.

In the case of `C[Si](C)(C)C1(Sc2ccccc2)SCCCS1`, the TGI is over 100 µM.

In turn, `O=c1cc(-c2ccccc2)oc2cc(OCCCOc3ccc4c(=O)cc(-c5ccccc5)oc4c3)ccc12` registered a TGI of over 100 µM.

Another assay has as its system NCI-H460 lung. As to the kind of experiment: inhibition of tumour cell growth, NCI panel, 48 h.
Regarding `CN(C(=O)c1ccc(C(F)(F)F)cc1)c1ccc(Oc2ccc3c(c2)cc(C(=O)N2CCN(Cc4ccc(OC(F)F)cc4)CC2)n3C)nc1`, the GI50 is 3.25 µM and the TGI is over 100 µM.

For the compound `Nc1ncnc2c1nnn2C1OC(CO)C(O)C1O` (stereo not given), the TGI came out at 5.64 µM.

`CN1CCN(CCCn2c(=O)c3sc4ncccc4c3n3nnc(-c4ccccc4)c23)CC1`: the GI50 is 6.88 µM and the TGI stood at 13.7 µM.

`NC1(C(=O)OCc2ccccc2)CCCC1` yielded a TGI of over 100 µM.

As for `O=C(/C=C/c1ccc(Cl)cc1)c1ccc(Nc2ccnc3cc(Cl)ccc23)cc1`, the GI50 is over 57.6 µM and the TGI was over 100 µM.

As to `CCCCCCCC(=O)SCC/C=C/[C@@H]1CC(=O)NCc2cc(ccn2)C2=N[C@@](C)(CS2)C(=O)N[C@@H](C(C)C)C(=O)O1`, the GI50 is 0.00754 µM and the TGI is over 11.3 µM.

In turn, `CSc1nc(NC2OCC(OC(C)=O)C(OC(C)=O)C2OC(C)=O)c(N=CC=Nc2c(NC3OCC(OC(C)=O)C(OC(C)=O)C3OC(C)=O)nc(SC)[nH]c2=O)c(=O)[nH]1` (stereo not given) gave a TGI of over 100 µM.

In the case of `N#CC(C#N)=CNC(N)=S`, the TGI was over 100 µM.

`CC1(C)C2CCC(=O)C1CC2` (stereo not given) had a TGI of over 100 µM.

For `ClCc1cccc(Cn2cnc3ncnc(Cl)c32)c1`, the GI50 is 2.09 µM and the TGI came to 4.45 µM.

For the compound `OCC#Cc1ccccc1C#Cc1ccccc1`, the GI50 is 18.2 µM and the TGI is 35.2 µM.

As for `COc1ccc(-c2nnc(COc3ccc(C(=O)/C=C/c4ccco4)cc3)o2)cc1`, the GI50 is 3.66 µM and the TGI turned out to be 14 µM.

For the compound `Cc1ccccc1S(=O)(=O)OC1NS(=O)(=O)c2ccccc21` (stereo not given), the TGI is over 100 µM.

Take `O=C(/C=C/c1ccncc1)c1cc(Cl)ccc1O`: the GI50 was 15.5 µM and the TGI was 34.7 µM.

In the case of `COc1cc2c3c(n(C)c(=O)c2cc1OC)-c1cc2c(cc1/C3=C\CCCN)OCO2`, the GI50 was 2.65 µM and the TGI is over 100 µM.

The compound `Cc1ccc(S(=O)(=O)Nc2ccccc2C(=O)c2ccc(C)c(C)c2)cc1` returned a TGI of over 100 µM.

For the compound `COc1ccc(-c2nnc(COc3ccc(NC(=O)Nc4cc(C(F)(F)F)cc(C(F)(F)F)c4)cc3F)o2)cc1`, the GI50 was 1.66 µM and the TGI worked out at 4.38 µM.

`C[Si](C)(C)C1(Sc2ccccc2)SCCCS1` yielded a TGI of over 100 µM.

`O=c1cc(-c2ccccc2)oc2cc(OCCCOc3ccc4c(=O)cc(-c5ccccc5)oc4c3)ccc12` had a TGI of over 100 µM.

A further assay concerns UACC-257 melanoma. As to the kind of experiment: inhibition of tumour cell growth, NCI panel, 48 h.
Regarding `CN(C(=O)c1ccc(C(F)(F)F)cc1)c1ccc(Oc2ccc3c(c2)cc(C(=O)N2CCN(Cc4ccc(OC(F)F)cc4)CC2)n3C)nc1`, the GI50 is 0.138 µM and the TGI is over 100 µM.

For the compound `Nc1ncnc2c1nnn2C1OC(CO)C(O)C1O` (stereo not given), the TGI came to 10.9 µM.

Consider `CN1CCN(CCCn2c(=O)c3sc4ncccc4c3n3nnc(-c4ccccc4)c23)CC1`, for which the GI50 was 2.27 µM and the TGI turned out to be 7.62 µM.

With `NC1(C(=O)OCc2ccccc2)CCCC1`, the TGI stood at 41.9 µM.

For `O=C(/C=C/c1ccc(Cl)cc1)c1ccc(Nc2ccnc3cc(Cl)ccc23)cc1`, the GI50 was over 100 µM and the TGI was over 100 µM.

In turn, `CSc1nc(NC2OCC(OC(C)=O)C(OC(C)=O)C2OC(C)=O)c(N=CC=Nc2c(NC3OCC(OC(C)=O)C(OC(C)=O)C3OC(C)=O)nc(SC)[nH]c2=O)c(=O)[nH]1` (stereo not given) yielded a TGI of over 100 µM.

`N#CC(C#N)=CNC(N)=S` came in with a TGI of over 100 µM.

The compound `CC1(C)C2CCC(=O)C1CC2` (stereo not given) had a TGI of over 100 µM.

For the compound `ClCc1cccc(Cn2cnc3ncnc(Cl)c32)c1`, the GI50 is 1.96 µM and the TGI was 5.52 µM.

As to `OCC#Cc1ccccc1C#Cc1ccccc1`, the GI50 is 16.2 µM and the TGI stood at 32 µM.

Consider `COc1ccc(-c2nnc(COc3ccc(C(=O)/C=C/c4ccco4)cc3)o2)cc1`, for which the GI50 is 2.94 µM and the TGI turned out to be 10.5 µM.

`Cc1ccccc1S(=O)(=O)OC1NS(=O)(=O)c2ccccc21` (stereo not given) came in with a TGI of over 100 µM.

`O=C(/C=C/c1ccncc1)c1cc(Cl)ccc1O`: the GI50 is 22.2 µM and the TGI was determined as 49.7 µM.

As to `COc1cc2c3c(n(C)c(=O)c2cc1OC)-c1cc2c(cc1/C3=C\CCCN)OCO2`, the GI50 was 30.5 µM and the TGI is over 100 µM.

For the compound `Cc1ccc(S(=O)(=O)Nc2ccccc2C(=O)c2ccc(C)c(C)c2)cc1`, the TGI is over 100 µM.

For `COc1ccc(-c2nnc(COc3ccc(NC(=O)Nc4cc(C(F)(F)F)cc(C(F)(F)F)c4)cc3F)o2)cc1`, the GI50 is 2.08 µM and the TGI was found to be 5.51 µM.

Consider `C[Si](C)(C)C1(Sc2ccccc2)SCCCS1`, for which the TGI is over 100 µM.

`O=c1cc(-c2ccccc2)oc2cc(OCCCOc3ccc4c(=O)cc(-c5ccccc5)oc4c3)ccc12` had a TGI of over 100 µM.
